According to BindingDB's records for doi:10.1021/jm8000949 (China Pharmaceutical University, 2008):

Molecular target: T1, Glycogen phosphorylase, muscle form (Oryctolagus cuniculus, UniProt P00489)
T1 sequence (P00489 whole entry): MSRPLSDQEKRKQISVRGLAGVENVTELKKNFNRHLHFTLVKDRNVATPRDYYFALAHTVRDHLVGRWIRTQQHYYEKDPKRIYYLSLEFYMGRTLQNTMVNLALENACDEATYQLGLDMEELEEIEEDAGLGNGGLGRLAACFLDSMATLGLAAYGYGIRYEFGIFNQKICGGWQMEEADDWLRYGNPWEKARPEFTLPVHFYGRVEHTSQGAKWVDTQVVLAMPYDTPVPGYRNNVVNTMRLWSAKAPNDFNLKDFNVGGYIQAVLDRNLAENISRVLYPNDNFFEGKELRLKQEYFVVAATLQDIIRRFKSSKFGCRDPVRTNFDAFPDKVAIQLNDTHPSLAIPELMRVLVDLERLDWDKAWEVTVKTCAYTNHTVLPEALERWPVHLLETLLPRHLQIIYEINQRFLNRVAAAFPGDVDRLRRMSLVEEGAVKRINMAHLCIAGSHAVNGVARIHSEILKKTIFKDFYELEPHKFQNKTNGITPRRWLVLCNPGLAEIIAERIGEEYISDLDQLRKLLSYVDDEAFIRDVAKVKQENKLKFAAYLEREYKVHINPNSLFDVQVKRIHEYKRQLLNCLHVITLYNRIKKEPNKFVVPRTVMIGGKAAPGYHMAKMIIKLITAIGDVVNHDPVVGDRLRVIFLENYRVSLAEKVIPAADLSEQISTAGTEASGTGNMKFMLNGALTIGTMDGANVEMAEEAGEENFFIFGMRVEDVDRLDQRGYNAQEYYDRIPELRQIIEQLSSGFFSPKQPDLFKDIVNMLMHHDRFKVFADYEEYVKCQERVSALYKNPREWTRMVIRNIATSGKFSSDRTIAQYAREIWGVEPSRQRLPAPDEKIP
Experiment: Enzyme Inhibition Assay
Details: pH 7.2; 22 °C
Protocol: The activity of the compounds is determined by measuring the inhibitory effect of the compounds in the direction of glycogen synthesis, the conversion of glucose-1-phosphate into glycogen with the release of inorganic phosphate, which was monitored using microplate reader (BIO-RAD). […] The IC50 values were estimated by fitting the inhibition data to a dose dependent curve using a logistic derivative equation.

IC50	SMILES
822 µM	CC1(C)C2CC[C@]3(C)[C@H](C(=O)C=C4[C@@H]5C[C@@](C)(C(=O)O)CC[C@]5(C)CC[C@]43C)[C@@]2(C)CC[C@@H]1O[C@H]1O[C@H](C(=O)O)[C@@H](O)[C@H](O)[C@H]1O[C@@H]1O[C@H](C(=O)O)[C@@H](O)[C@H](O)[C@H]1O (stereo not given in full) [pentacyclic triterpene compound 7]
18 µM	CC1(C)CC[C@]2(C(=O)O)CC[C@]3(C)C(=CC[C@@H]4[C@@]5(C)CCC(=O)C(C)(C)C5CC[C@]43C)[C@@H]2C1 (stereo not given in full) [pentacyclic triterpene compound 6]
106 µM	C[C@H]1[C@H](C)CC[C@]2(C(=O)O[C@@H]3O[C@H](CO)[C@@H](O)[C@H](O)[C@H]3O)CC[C@]3(C)C(=CC[C@@H]4[C@@]5(C)C[C@@H](O)[C@H](O)C(C)(C)C5CC[C@]43C)[C@H]12 (stereo partly drawn) [(2S,3R,4S,5S,6R)-3,4,5-trihydroxy-6-(hydroxymethyl)oxan-2-yl (1S,2R,4aS,6aS,6bR,10R,11R,12aR,12bR,14bS)-10,11-dihydroxy-1,2,6a,6b,9,9,12a-heptamethyl-1,2,3,4,4a,5,6,6a,6b,7,8,8a,9,10,11,12,12a,12b,13,14b-icosahydropicene-4a-carboxylate]
9 µM	C[C@H]1[C@H](C)CC[C@]2(C(=O)O)CC[C@]3(C)C(=CC[C@@H]4[C@@]5(C)CC[C@H](O)C(C)(C)C5CC[C@]43C)[C@H]12 (stereo partly drawn) [(1S,2R,4aS,6aS,6bR,10S,12aR,12bR,14bS)-10-hydroxy-1,2,6a,6b,9,9,12a-heptamethyl-1,2,3,4,4a,5,6,6a,6b,7,8,8a,9,10,11,12,12a,12b,13,14b-icosahydropicene-4a-carboxylic acid]
97 µM	C[C@H]1[C@H](C)CC[C@]2(C(=O)O[C@@H]3O[C@H](CO)[C@@H](O)[C@H](O)[C@H]3O)CC[C@]3(C)C(=CC[C@@H]4[C@@]5(C)CC[C@H](O)C(C)(C)C5CC[C@]43C)[C@H]12 (stereo not given in full) [pentacyclic triterpene compound 19]
293 µM	CC1(C)CC[C@]2(C(=O)O[C@@H]3O[C@H](CO)[C@@H](O)[C@H](O)[C@H]3O)CC[C@]3(C)C(=CC[C@@H]4[C@@]5(C)CC[C@H](O)C(C)(C)C5CC[C@]43C)[C@@H]2C1 (stereo partly drawn) [(2S,3R,4S,5S,6R)-3,4,5-trihydroxy-6-(hydroxymethyl)oxan-2-yl (4aS,6aS,6bR,10S,12aR,12bR,14bS)-10-hydroxy-2,2,6a,6b,9,9,12a-heptamethyl-1,2,3,4,4a,5,6,6a,6b,7,8,8a,9,10,11,12,12a,12b,13,14b-icosahydropicene-4a-carboxylate]
66 µM	CC1(C)C2CC[C@]3(C)[C@H](C(=O)C=C4[C@@H]5C[C@@](C)(C(=O)O)CC[C@]5(C)CC[C@]43C)[C@@]2(C)CC[C@@H]1O (stereo partly drawn) [(2S,4aS,6aS,6bR,10S,12aS,12bR,14bR)-10-hydroxy-2,4a,6a,6b,9,9,12a-heptamethyl-13-oxo-1,2,3,4,4a,5,6,6a,6b,7,8,8a,9,10,11,12,12a,12b,13,14b-icosahydropicene-2-carboxylic acid]
57 µM	C[C@H]1[C@H](C)CC[C@]2(C(=O)O)CC[C@]3(C)C(=CC[C@@H]4[C@@]5(C)CCC(=O)C(C)(C)C5CC[C@]43C)[C@H]12 (stereo partly drawn) [(1S,2R,4aS,6aS,6bR,12aR,12bR,14bS)-1,2,6a,6b,9,9,12a-heptamethyl-10-oxo-1,2,3,4,4a,5,6,6a,6b,7,8,8a,9,10,11,12,12a,12b,13,14b-icosahydropicene-4a-carboxylic acid]
19 µM	C[C@H]1[C@H](C)CC[C@]2(C(=O)O)CC[C@]3(C)C(=CC[C@@H]4[C@@]5(C)CC[C@@H](O)C(C)(C)C5CC[C@]43C)[C@H]12 (stereo partly drawn) [(1S,2R,4aS,6aS,6bR,10R,12aR,12bR,14bS)-10-hydroxy-1,2,6a,6b,9,9,12a-heptamethyl-1,2,3,4,4a,5,6,6a,6b,7,8,8a,9,10,11,12,12a,12b,13,14b-icosahydropicene-4a-carboxylic acid]

SMILES	IC50
CC1(C)C2CC[C@]3(C)[C@H](CC=C4[C@@H]5C[C@@](C)(C(=O)O)CC[C@]5(C)CC[C@]43C)[C@@]2(C)CC[C@@H]1O (stereo partly drawn) [(2S,4aS,6aS,6bR,10S,12aR,12bR,14bR)-10-hydroxy-2,4a,6a,6b,9,9,12a-heptamethyl-1,2,3,4,4a,5,6,6a,6b,7,8,8a,9,10,11,12,12a,12b,13,14b-icosahydropicene-2-carboxylic acid]	82 µM
